Patent US5140009A (Tap Pharmaceuticals, Inc., priority 1990, dated 1992)
Numbered stars: 1 amine (or outer) side, 2 acyl side, 3 side chain; on linkers, the order of the positions; unused ones are H or OH. Square brackets hold non-standard residues; d marks the D form. Peptide text beside a SMILES is read from it. * marks the point of attachment. Propanoyl(3-indol-3-yl) = O=C(CCc1c[nH]c2ccccc12)*; Indole2carbonyl(5-F) = O=C(c1cc2cc(F)ccc2[nH]1)*; Phenylacetyl(4-CF3) = O=C(Cc1ccc(C(F)(F)F)cc1)*; Propanoyl(3-(4-F-phenyl)) = O=C(CCc1ccc(F)cc1)*; Propanoyl(3-(4-MeO-Ph)) = COc1ccc(CCC(=O)*)cc1; Hydrocinnamoyl(2,4-F2) = O=C(CCc1ccc(F)cc1F)*; Propanoyl(3-(4-Cl-Ph)) = O=C(CCc1ccc(Cl)cc1)*; Phenylacetyl(4-Cl) = O=C(Cc1ccc(Cl)cc1)*; Desaminotyrosyl = O=C(CCc1ccc(O)cc1)*; d2Nal = N[C@H](Cc1ccc2ccccc2c1)C(=O)O; X16 = O=C(c1cc2ccccc2[nH]1)*; Morpholide = C1CN(*)CCO1; X15 = O=C(Cc1ccc(O)cc1)*; CO = O=C([*:1])[*:2]

What follows are molecules tested against T1, LHRH receptors (Rattus norvegicus, UniProt P30969) (assay: Receptor Binding (radioligand receptor binding assay)). Conditions: table 3; rat pituitary membranes, radioiodinated [D-Leu^6 -des Gly^10 ]-LHRH ethyl amide 50 pM, 2 hours at 4° C.; read-out: Receptor Binding pkI (converted).
T1 construct: Pituitary membranes containing LHRH receptors are prepared in batches from quick-frozen rat pituitaries; tissue Hilltop Labs; host or cells: rat pituitary membranes
T1 sequence (P30969 1-327): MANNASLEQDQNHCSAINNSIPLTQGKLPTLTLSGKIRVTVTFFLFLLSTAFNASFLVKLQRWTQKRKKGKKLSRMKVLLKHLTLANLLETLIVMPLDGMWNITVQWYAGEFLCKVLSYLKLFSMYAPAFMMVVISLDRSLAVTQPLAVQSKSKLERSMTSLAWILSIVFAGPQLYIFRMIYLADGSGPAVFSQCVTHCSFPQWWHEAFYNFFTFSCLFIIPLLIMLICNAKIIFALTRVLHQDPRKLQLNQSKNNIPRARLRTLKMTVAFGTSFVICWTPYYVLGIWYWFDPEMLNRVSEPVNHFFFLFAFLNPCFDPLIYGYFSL

Row | Structure (SMILES) | Ki [nM]
1 | CCNC(=O)[C@@H]1CCCN1C(=O)[C@H](CCCN=C(N)N)NC(=O)[C@H](CC(C)C)NC(=O)[C@@H](Cc1ccc(O)cc1)NC(=O)[C@H](Cc1ccc(O)cc1)NC(=O)[C@H](CO)NC(=O)[C@H](Cc1c[nH]c2ccccc12)NC(=O)CCc1ccc(F)cc1 [Compound 92, (3-9)[N-(3-(4-Fluorophenyl)propionyl) -Trp^3 -D-Tyr^6 -Pro^9 NHEt]LHRH] ({Propanoyl(3-(4-F-phenyl))}-WSY[dY]LRP-NHEt) | 0.0316
2 | CCNC(=O)[C@@H]1CCCN1C(=O)[C@H](CCCNC(=N)N)NC(=O)[C@H](CC(C)C)NC(=O)[C@@H](Cc1ccc(O)cc1)NC(=O)[C@H](Cc1ccc(O)cc1)NC(=O)[C@H](CO)NC(=O)[C@@H](Cc1ccc(O)cc1)NC(=O)CCc1ccc(F)cc1 [Compound 93, (3-9)[N-(3-(4-Fluorophenyl)propionyl) -D-Tyr^3,6 -Pro^9 NHEt]LHRH] ({Propanoyl(3-(4-F-phenyl))}-[dY]SY[dY]LRP-NHEt) | 0.0158
3 | CCNC(=O)[C@@H]1CCCN1C(=O)[C@H](CCCNC(=N)N)NC(=O)[C@H](CC(C)C)NC(=O)[C@@H](Cc1c[nH]c2ccccc12)NC(=O)[C@H](Cc1ccc(O)cc1)NC(=O)[C@H](CO)NC(=O)[C@H](Cc1c[nH]c2ccccc12)NC(=O)CCc1ccc(F)cc1 [Compound 97, (3-9)[N-(3-(4-Fluorophenyl)propionyl) -Trp^3 -D-Trp^6 -Pro^9 NHEt]LHRH] ({Propanoyl(3-(4-F-phenyl))}-WSY[dW]LRP-NHEt) | 0.0331
4 | CCNC(=O)[C@@H]1CCCN1C(=O)[C@H](CCCNC(=N)N)NC(=O)[C@H](CC(C)C)NC(=O)[C@@H](Cc1c[nH]c2ccccc12)NC(=O)[C@H](Cc1ccc(O)cc1)NC(=O)[C@H](CO)NC(=O)[C@H](Cc1c[nH]c2ccccc12)NC(=O)CCc1ccc(Cl)cc1 [Compound 98, (3-9)[N-(3-(4-Chlorophenyl)propionyl) -Trp^3 -D-Trp^6 -Pro^9 NHEt]LHRH] ({Propanoyl(3-(4-Cl-Ph))}-WSY[dW]LRP-NHEt) | 0.0525
5 | CCNC(=O)[C@@H]1CCCN1C(=O)[C@H](CCCN=C(N)N)NC(=O)[C@H](CC(C)C)NC(=O)[C@@H](Cc1c[nH]c2ccccc12)NC(=O)[C@H](Cc1ccc(O)cc1)NC(=O)[C@@H]1CCCN1C(=O)[C@@H](Cc1c[nH]c2ccccc12)NC(=O)CCc1ccc(F)cc1 [Compound 100, (3-9)[N-(3-(4-Fluorophenyl)propionyl)-D -Trp^3,6 -Pro^4,9 NHEt]LHRH] ({Propanoyl(3-(4-F-phenyl))}-[dW]PY[dW]LRP-NHEt) | 2.88
6 | CCNC(=O)[C@@H]1CCCN1C(=O)[C@H](CCCN=C(N)N)NC(=O)[C@H](CC(C)C)NC(=O)[C@@H](Cc1c[nH]c2ccccc12)NC(=O)[C@H](Cc1ccc(O)cc1)NC(=O)[C@H](CO)NC(=O)[C@H](Cc1c[nH]c2ccccc12)NC(=O)c1cc2ccccc2[nH]1 [Compound 101, (3-9)[N-(2-Indolecarbonyl)-Trp^3 -D-Trp^6 -Pro^9 NHEt]LHRH] (X16-WSY[dW]LRP-NHEt) | 12.6
7 | CCNC(=O)[C@@H]1CCCN1C(=O)[C@H](CCCNC(=N)N)NC(=O)[C@H](CC(C)C)NC(=O)[C@@H](Cc1c[nH]c2ccccc12)NC(=O)[C@H](Cc1ccc(O)cc1)NC(=O)[C@H](CO)NC(=O)[C@@H](Cc1c[nH]c2ccccc12)NC(=O)c1cc2cc(F)ccc2[nH]1 [Compound 102, (3-9)[N-(5-Fluoro-2-indolecarbonyl)-D -Trp^3,6 -Pro^9 -NHEt]LHRH] ({Indole2carbonyl(5-F)}-[dW]SY[dW]LRP-NHEt) | 17.4
8 | CCNC(=O)[C@@H]1CCCN1C(=O)[C@H](CCCNC(=N)N)NC(=O)[C@H](CC(C)C)NC(=O)[C@@H](Cc1c[nH]c2ccccc12)NC(=O)[C@H](Cc1ccc(O)cc1)NC(=O)[C@H](CO)NC(=O)[C@H](Cc1c[nH]c2ccccc12)NC(=O)Cc1ccc(Cl)cc1 [Compound 104, (3-9)[N-(4-Chlorophenyl)acetyl-Trp^3 -D-Trp^6 -Pro^9 NHEt]LHRH] ({Phenylacetyl(4-Cl)}-WSY[dW]LRP-NHEt) | 0.832
9 | CCNC(=O)[C@@H]1CCCN1C(=O)[C@H](CCCN=C(N)N)NC(=O)[C@H](CC(C)C)NC(=O)[C@@H](Cc1c[nH]c2ccccc12)NC(=O)[C@H](Cc1ccc(O)cc1)NC(=O)[C@H](CO)NC(=O)[C@H](Cc1c[nH]c2ccccc12)NC(=O)Cc1ccc(O)cc1 [Compound 105, (3-9)[N-(4-Hydroxyphenyl)acetyl-Trp^3 -D -Trp^6 -Pro^9 NHEt]LHRH] (X15-WSY[dW]LRP-NHEt) | 0.562
10 | CCNC(=O)[C@@H]1CCCN1C(=O)[C@H](CCCNC(=N)N)NC(=O)[C@H](CC(C)C)NC(=O)[C@H](Cc1c[nH]c2ccccc12)NC(=O)[C@H](Cc1ccc(O)cc1)NC(=O)[C@H](CO)NC(=O)[C@H](Cc1c[nH]c2ccccc12)NC(=O)Cc1ccc(C(F)(F)F)cc1 [Compound 106, (3-9)[N-(4-Trifluoromethylphenyl)acetyl -Trp^3,6 -Pro^9 NHEt]LHRH] ({Phenylacetyl(4-CF3)}-WSYWLRP-NHEt) | 0.851
11 | CCNC(=O)[C@@H]1CCCN1C(=O)[C@H](CCCNC(=N)N)NC(=O)[C@H](CC(C)C)NC(=O)[C@@H](Cc1c[nH]c2ccccc12)NC(=O)[C@H](Cc1ccc(O)cc1)NC(=O)[C@H](CO)NC(=O)[C@@H](Cc1c[nH]c2ccccc12)NC(=O)[C@H](Cc1ccccc1)NC(=O)N1CCOCC1 [Compound 107, (2 9)[N-(N-alpha-Morpholinocarbonyl)-Phe^2 -D-Trp^3,6 -Pro^9 NHEt]LHRH] ({Morpholide-CO}-F[dW]SY[dW]LRP-NHEt) | 0.257
12 | CCNC(=O)[C@@H]1CCCN1C(=O)[C@H](CCCNC(=N)N)NC(=O)[C@H](CC(C)C)NC(=O)[C@@H](Cc1c[nH]c2ccccc12)NC(=O)[C@H](Cc1ccc(O)cc1)NC(=O)[C@H](CO)NC(=O)[C@@H](Cc1ccc(O)cc1)NC(=O)[C@H](Cc1ccccc1)NC(=O)N1CCOCC1 [Compound 108, (2-9)[N-(N-alpha-Morpholinocarbonyl)-Phe^2 -D-Tyr^3 -D-Trp^6 -Pro^9 NHEt]LHRH] ({Morpholide-CO}-F[dY]SY[dW]LRP-NHEt) | 0.182
13 | CCNC(=O)[C@@H]1CCCN1C(=O)[C@H](CCCNC(=N)N)NC(=O)[C@H](CC(C)C)NC(=O)[C@@H](Cc1c[nH]c2ccccc12)NC(=O)[C@H](Cc1ccc(O)cc1)NC(=O)[C@H](CO)NC(=O)[C@H](Cc1c[nH]c2ccccc12)NC(=O)[C@H](Cc1c[nH]cn1)NC(=O)N1CCOCC1 [Compound 109, (2-9)[N-(N-alpha-Morpholinocarbonyl)-His^2 -D-Trp^6 -Pro^9 NHEt]LHRH] ({Morpholide-CO}-HWSY[dW]LRP-NHEt) | 0.316

Other lines, results leading:

Row | Ki [nM] | Structure (SMILES)
14 | 0.0316 | CCNC(=O)[C@@H]1CCCN1C(=O)[C@H](CCCN=C(N)N)NC(=O)[C@H](CC(C)C)NC(=O)[C@@H](Cc1c[nH]c2ccccc12)NC(=O)[C@H](Cc1ccc(O)cc1)NC(=O)[C@H](CO)NC(=O)[C@@H](Cc1c[nH]c2ccccc12)NC(=O)CCc1ccc(F)cc1F [Compound 90, (3-9)[N-(3-(2,4-Difluorophenyl)propionyl) -D-Trp^3,6 -Pro^9 NHEt]LHRH] ({Hydrocinnamoyl(2,4-F2)}-[dW]SY[dW]LRP-NHEt)
15 | 0.0288 | CCNC(=O)[C@@H]1CCCN1C(=O)[C@H](CCCNC(=N)N)NC(=O)[C@H](CC(C)C)NC(=O)[C@@H](Cc1c[nH]c2ccccc12)NC(=O)[C@H](Cc1ccc(O)cc1)NC(=O)[C@H](CO)NC(=O)[C@@H](Cc1c[nH]c2ccccc12)NC(=O)CCc1ccc(F)cc1 [Compound 91, (3-9)[N-(3-(4-Fluorophenyl)propionyl) -D-Trp^3,6 Pro^9 NHEt]LHRH] ({Propanoyl(3-(4-F-phenyl))}-[dW]SY[dW]LRP-NHEt)
16 | 0.309 | CCNC(=O)[C@@H]1CCCN1C(=O)[C@H](CCCNC(=N)N)NC(=O)[C@H](CC(C)C)NC(=O)[C@@H](Cc1ccc2ccccc2c1)NC(=O)[C@H](Cc1ccc(O)cc1)NC(=O)[C@H](CO)NC(=O)[C@@H](Cc1c[nH]c2ccccc12)NC(=O)CCc1ccc(F)cc1 [Compound 94, (3-9)[N-(3-(4-Fluorophenyl)propionyl) -D-Trp^3 -D-2-Nal^6 -Pro^9 NHEt]LHRH] ({Propanoyl(3-(4-F-phenyl))}-[dW]SY[d2Nal]LRP-NHEt)
17 | 0.0776 | CCNC(=O)[C@@H]1CCCN1C(=O)[C@H](CCCNC(=N)N)NC(=O)[C@H](CC(C)C)NC(=O)[C@@H](Cc1c[nH]c2ccccc12)NC(=O)[C@H](Cc1ccc(O)cc1)NC(=O)[C@H](CO)NC(=O)[C@H](Cc1c[nH]c2ccccc12)NC(=O)CCc1ccc(OC)cc1 [Compound 95, (3-9)[N-(3-(4-Methoxyphenyl)propionyl) -Trp^3 -D-Trp^6 -Pro^9 NHEt]LHRH] ({Propanoyl(3-(4-MeO-Ph))}-WSY[dW]LRP-NHEt)
18 | 0.0832 | CCNC(=O)[C@@H]1CCCN1C(=O)[C@H](CCCN=C(N)N)NC(=O)[C@H](CC(C)C)NC(=O)[C@@H](Cc1c[nH]c2ccccc12)NC(=O)[C@H](Cc1ccc(O)cc1)NC(=O)[C@H](CO)NC(=O)[C@H](Cc1c[nH]c2ccccc12)NC(=O)CCc1ccc(O)cc1 [Compound 99, (3-9)[N-(3-(4-Hydroxyphenyl)propionyl) -Trp^3 -D-Trp^6 -Pro^9 NHEt]LHRH] (Desaminotyrosyl-WSY[dW]LRP-NHEt)
19 | 0.0794 | CCNC(=O)[C@@H]1CCCN1C(=O)[C@H](CCCNC(=N)N)NC(=O)[C@H](CC(C)C)NC(=O)[C@@H](Cc1c[nH]c2ccccc12)NC(=O)[C@H](Cc1ccc(O)cc1)NC(=O)[C@H](CO)NC(=O)[C@@H](Cc1c[nH]c2ccccc12)NC(=O)CCc1c[nH]c2ccccc12 [Compound 103, (3-9)[N-(3-Indolepropionyl)-D-Trp^3,6 -Pro^9 -NHEt]LHRH] ({Propanoyl(3-indol-3-yl)}-[dW]SY[dW]LRP-NHEt)
